Structures can show the parent of a compound that is named as a salt. Where two headings read alike, the source gives them in different places.
Experiments:
[1] = conditioned avoidance-escape procedure (modified pole-climb avoidance); assay type: in vivo; conditions: oral, male Wistar rat
Protocol: In order to further assess their usefulness, representative compounds of the invention were tested in a conditioned avoidance-escape procedure. In this test*, an animal (male Wistar rat) is conditioned to respond to a stimulus in order to avoid an unpleasant electrical shock. Should the animals fail to give the response in order to avoid the shock, an escape route is available so that it can escape the shock once it is delivered. Preferably, compounds will show variations between the dose that will supress conditioned avoidance and the dose that will suppress the escape response.
*Modification of the pole-climb avoidance paradigm described in Ann. NY Acad. Sci., 740, (1957).

[2] = Mouse Activity and Screen Test Procedure (MAST): inhibition of spontaneous locomotion and inverted screen test; assay type: in vivo, Swiss-Webster male mice; conditions: ip, 1 h, intraperitoneal, one hour prior to testing, mice, locomotion over 60 minutes, read-out: Dose at which an overall dose rating of A was obtained
Excerpt: The compound of the invention are new chemical substances which are useful as pharmaceutical agents for the treatment of psychoses. The antipsychotic activity of representative compounds of the invention was established by the Mouse Activity and Screen Test Procedure (MAST) described below.
ANIMALS: Nine unfasted Swiss-Webster male mice (Buckberg Labs) weighing 20-30 g are equally divided into three groups for each drug dose to be tested. That is, data for each dose level was generated by three separate groups of three mice each.
DRUGS: A minimum of three dose levels (10, 30, and 100 mg/kg) are tested for each drug. Treatments are administered intraperitoneally one hour prior to testing. All dosages are calculated as parent compound and given in volumes of […]. Compounds are dissolved or suspended in 0.2% Methocel. Control animals are injected with Methocel.
TESTING: A two part testing procedure is started one hour postinjection. First, the screen test is performed (see Pharmac. Biochem. Behav. 6, 351-353, 1977). Briefly this test consists of placing mice on individual wire screens which are then rotated 180 degrees at the start of a 60-second observation period. The number of mice falling off the inverted screen is recorded.
Immediately following the screen test, the final phase of testing is initiated by placing each group of three mice in one actophotometer (Life Sciences, 22, 1067-1076, 1978). The actophotometer consists of a cylindrical chamber whose center is occupied by another cylinder which contains the illumination for six photocells located on the perimeter of the chamber. Six light-beam interruptions equal one count. Locomotor activity is recorded by computer at 10-minute intervals for 60 minutes.
DATA: The data obtained from the screen test are expressed as percent of mice falling off the screen. Data derived from locomotor activity of drug treated mice are compared to the activity of vehicle treated animals and are expressed as percent inhibition of spontaneous locomotion. All percentages reported for inhibition of locomotion are based upon data accumulated for one hour. Both phases of testing are graded: A=60-100%; C=31-59%; and N=0-30%. An overall dose rating is obtained by the following criteria: […]
Utilizing this procedure, an overall dose rating of A was obtained for the noted compound at the indicated dose as reported in Table 1.

[3] = as above; assay type: in vivo, Swiss-Webster male mice; conditions: po, Compound administered orally, mice, read-out: Dose at which an overall dose rating of A was obtained
[4] = suppression of conditioned avoidance, read-out: Oral ED50 Avoidance
[5] = suppression of escape response, read-out: Oral ED50 Escape

Row | SMILES | ED50 [1, 4] [mg/kg] | ED50 [1, 5] [mg/kg] | minimal effective dose [2] [mg/kg] | minimal effective dose [3] [mg/kg]
1 | CC1=Nc2c(C)nn(C)c2C2=NC(C)CN12 (racemic) [R1=CH3, R2=CH3, R3=CH3, R4=H, R5=CH3 (Racemate), 7,8-dihydro-1,3,5,8-tetramethyl-1H-imidazo[1,2-c]pyrazolo[3,4-e]pyrimidine] | 10 | 32 |  | 
2 | Cc1nn(C)c2c1N=C(C1CC1)N1CC(C)N=C21 (centres unmarked) [5-Cyclopropyl-7,8-dihydro-1,3,8-trimethyl-1H-imidazo[1,2-c]pyrazolo[3,4-e]pyrimidine] | 11.5 | 110 | 100 | 
3 | CCc1nc2c(C)nn(C)c2c2nc(C)cn12 [5-Ethyl-1,3,8-trimethyl-1H-imidazo[1,2-c]pyrazolo[3,4-e]pyrimidine] | 8 | 45 |  | 
4 | CCC1=Nc2c(C)nn(CC)c2C2=NC(C)CN12 (centres unmarked) [R1=C2H5, R2=CH3, R3=C2H5, R4=H, R5=CH3, 1,5-Diethyl-7,8-dihydro-3,8-dimethyl-1H-imidazo[1,2-c]pyrazolo[3,4-e]pyrimidine] | 9 | 50 | 100 | 
5 | CCn1nc(C)c2c1C1=NC(C)CN1C(C)=N2 (centres unmarked) [R1=C2H5, R2=CH3, R3=CH3, R4=H, R5=CH3, 7,8-Dihydro-1-ethyl-3,5,8-trimethyl-1H-imidazo[1,2-c]pyrazolo[3,4-e]pyrimidine] | 5 | 15 |  | 
6 | CCn1nc(C)c2c1C1=NCCN1C(C)=N2 [R1=C2H5, R2=CH3, R3=CH3, R4=H, R5=H, 1-Ethyl-7,8-dihydro-3,5-dimethyl-1H-imidazo[1,2-c]pyrazolo[3,4-e]pyrimidine] | 10 | 28 |  | 
7 | CC1=Nc2c(C)nn(CC(F)(F)F)c2C2=NC(C)CN12 (centres unmarked) [R1=CF3CH2, R2=CH3, R3=CH3, R4=H, R5=CH3, 7,8-Dihydro-3,5,8-trimethyl-1-(2,2,2-trifluoroethyl)-1H-imidazo[1,2-c]pyrazolo[3,4-e]pyrimidine] |  |  | 100 | 
8 | CCC1=Nc2c(C)nn(C)c2C2=NCC(C)N12 (centres unmarked) [R1=CH3, R2=CH3, R3=C2H5, R4=CH3, R5=H, 7,8-Dihydro-5-ethyl-1,3,7-trimethyl-1H-imidazo[1,2-c]pyrazolo[3,4-e]pyrimidine] | 35 | 52 | 100 | 
9 | CCC1=Nc2c(C)nn(C)c2C2=NC(C)CN12 (centres unmarked) [R1=CH3, R2=CH3, R3=C2H5, R4=H, R5=CH3, 7,8-Dihydro-5-ethyl-1,3,8-trimethyl-1H-imidazo[1,2-c]pyrazolo[3,4-e]pyrimidine] | 6.4 | 66 |  | 
10 | CCC1=Nc2c(C)nn(C)c2C2=NCCN12 [R1=CH3, R2=CH3, R3=C2H5, R4=H, R5=H, 5-Ethyl-7,8-dihydro-1,3-dimethyl-1H-imidazo[1,2-c]pyrazolo[3,4-e]pyrimidine] |  |  |  | 90
11 | CC1=Nc2c(C)nn(C)c2C2=NCC(C)(C)N12 [R1=CH3, R2=CH3, R3=CH3, R4=(CH3)2, R5=H2, 7,8-Dihydro-1,3,5,7,7-pentamethyl-1H-imidazo[1,2-c]pyrazolo[3,4-e]pyrimidine] | 32 | 80 |  | 
12 | CC1=Nc2c(C)nn(C)c2C2=NC(C)C(C)N12 (centres unmarked) [R1=CH3, R2=CH3, R3=CH3, R4=CH3, R5=CH3, 7,8-dihydro-1,3,5,7,8-pentamethyl-1H-imidazo[1,2-c]pyrazolo[3,4-e]pyrimidine] | 20 | 57 | 100 | 
13 | CC1=Nc2c(C)nn(C)c2C2=NC(C)(C)CN12 [R1=CH3, R2=CH3, R3=CH3, R4=H2, R5=(CH3)2, 7,8-Dihydro-1,3,5,8,8-pentamethyl-1H-imidazo[1,2-c]pyrazolo[3,4-e]pyrimidine] | 18 | 120 |  | 
14 | CCC1CN2C(C)=Nc3c(C)nn(C)c3C2=N1 (centres unmarked) [R1=CH3, R2=CH3, R3=CH3, R4=H, R5=C2H5, 8-ethyl-7,8-dihydro-1,3,5-trimethyl-1H-imidazo[1,2-c]pyrazolo[3,4-e]pyrimidine] | 7.5 | 32 |  | 
15 | CC1=Nc2c(C)nn(C)c2C2=N[C@H](C)CN12 [R1=CH3, R2=CH3, R3=CH3, R4=H, R5=CH3 (R-isomer), 7,8-Dihydro-1,3,5-trimethyl-1H-imidazo[1,2-c]-pyrazolo[3,4-e]pyrimidine (R-form)] | < 65 | < 65 |  | 
16 | CC1=Nc2c(C)nn(C)c2C2=N[C@@H](C)CN12 [R1=CH3, R2=CH3, R3=CH3, R4=H, R5=CH3 (S-isomer), 7,8-Dihydro-1,3,5,8-tetramethyl-1H-imidazo[1,2-c]pyrazolo[3,4-e]pyrimidine (S-form)] | 11.5 | 20 | 100 | 
17 | CC1=Nc2c(C)nn(C)c2C2=N[C@@H](C(C)C)CN12 [R1=CH3, R2=CH3, R3=CH3, R4=H, R5=i-C3H7 (S-isomer), 7,8-Dihydro-8-isopropyl-1,3,5-trimethyl-1H-imidazo[1,2-c]pyrazolo[3,4-e]pyrimidine dihydrochloride (S-form)] | 20 | 70 | 100 | 
18 | Cc1nn(C)c2c1N=CN1CC(C)N=C21 (centres unmarked) [R1=CH3, R2=CH3, R3=H, R4=H, R5=CH3, 7,8-Dihydro-1,3,8-trimethyl-1H-imidazo[1,2-c]pyrazolo[3,4-e]pyrimidine] | 18 | 56 | 100 | 
19 | Cc1nn(C)c2c1N=CN1CCN=C21 [R1=CH3, R2=CH3, R3=H, R4=H, R5=H, 7,8-Dihydro-1,3-dimethyl-1H-imidazo[1,2-c]pyrazolo [3,4-e]pyrimidine] | 18 | 54 | 100 | 
20 | CCCn1nc(C)c2c1C1=NC(C)CN1C(C)=N2 (centres unmarked) [R1=n-C3H7, R2=CH3, R3=CH3, R4=H, R5=CH3, 7,8-Dihydro-3,5,8-trimethyl-1-n-propyl-1H-imidazo[1,2-c]pyrazolo[3,4-e]pyrimidine] | 37 | 90 | 100 | 

Reference: patent US4469868A, “Alkylimidazo[1,2-c]pyrazolo[3,4-e]pyrimidines” (Warner-Lambert Company, priority 1982, dated 1984)
